Data published in US20250250287A1, “HETEROCYCLIC COMPOUNDS, COMPOSITIONS THEREOF, AND METHODS OF TREATMENT THEREWITH” (BeiGene Switzerland GmbH, priority 2022, published 2025).

Test system: pERK1/2(THR202/TYR204) level in SW620 cell line (KRAS G12V)
Assay: KRAS G12V pERK assay (HTRF) in SW620 cell line
Format: cell-based
Conditions: Homo sapiens, SW-620, 2 h, SW620 cells, 2 hrs compound treatment
Method: (§1) SW620 cell line was used in this study. Cells were maintained in RPMI 1640 supplemented with 10% fetal bovine serum (Thermo Fisher), 50 units/mL penicillin and streptomycin (Thermo Fisher) and kept at 37° C. in a humidified atmosphere of 5% CO2 in air. Cells were reinstated from frozen stocks that were laid down within 30 passages from the original cells purchased. 40000 cells per well were seeded into a 96-well plate and incubated overnight. Cells were treated with a 10-point dilution series. The final compound concentration is from 0 to 10 μM. After 2 hrs compound treatment, cells were lysed, and the pERK1/2(THR202/TYR204) level in the cell lysates was detected by HTRF kit (Cisbio). In brief, a total of 16 μL of cell lysate from each well of a 96-well plate was transferred to a 384-well white assay plate. Lysate from each well was incubated with 2 μL of Eu3+-cryptate (donor) labeled anti-phospho-ERK1/2 and 2 μL of D2 (acceptor) labeled anti-phospho-ERK1/2 antibodies (Cisbio) overnight in dark at room temperature. When donor and acceptor are in close proximity, excitation of the donor with laser triggers a Fluorescence Resonance Energy Transfer (FRET) towards the acceptor, which in turn fluoresces at 655 nm wavelength. FRET signals were measured using a PHERAstar FSX reader (BMG Labtech). IC50 determination was performed by fitting the curve of percent inhibition versus the log of the inhibitor concentration using Dotmatics.

Q: How did the IC50 turn out when `C[C@@H]1Oc2nc(-c3cc(N)cc(Cl)c3C(F)(F)F)c(F)c3nc(OC[C@@]45CCCN4C[C@H](F)C5)nc(c23)N2CCCC[C@@H]12` [Example 33, 3-chloro-5-((5S,5aS)-1-fluoro-11-(((2R,7aS)-2-fluorotetrahydro-1H-pyrrolizin-7a(5H)-yl)methoxy)-5-methyl-5,5a,6,7,8,9-hexahydro-4-oxa-3,9a,10,12-tetraazabenzo[4,5]cyclohepta[1,2,3-de]naphthalen-2-yl)-4-(trifluoromethyl)aniline] was run?
A: 43 nM

Q: Which IC50 does the source give for `C#Cc1c(F)ccc2cc(O)cc(-c3cc4c5c(nc(OC[C@@]67CCCN6C[C@H](F)C7)nc5c3F)N3CCCCC3CCO4)c12` (stereo partly drawn) [Example 6, 5-ethynyl-6-fluoro-4-(1-fluoro-13-(((2R,7aS)-2-fluorotetrahydro-1H-pyrrolizin-7a(5H)-yl)methoxy)-6,6a,7,8,9,10-hexahydro-5H-pyrido[1′,2′:5,6][1,5]oxazocino[4,3,2-de]quinazolin-2-yl)naphthalen-2-ol] here?
A: 271 nM

Q: For `N#Cc1c(N)sc2c(F)ccc(-c3c(Cl)c4c5c(nc(OC[C@@]67CCCN6C[C@H](F)C7)nc5c3F)N3C[C@H](O)C[C@H]3CO4)c12` [Example 29, 2-amino-4-((2R,12aS)-10-chloro-8-fluoro-6-(((2R,7aS)-2-fluorotetrahydro-1H-pyrrolizin-7a(5H)-yl)methoxy)-2-hydroxy-2,3,12,12a-tetrahydro-1H-pyrrolo[2′,1′:3,4][1,4]oxazepino[5,6,7-de]quinazolin-9-yl)-7-fluorobenzo[b]thiophene-3-carbonitrile], which IC50 is on record?
A: 91 nM

Q: `C#Cc1c(F)ccc2cc(O)cc(-c3nc4c5c(nc(OC[C@@]67CCCN6C[C@H](F)C7)nc5c3F)N3C[C@H](F)C[C@H]3CO4)c12` [Example 19, 4-((2R,11aS)-2,7-difluoro-5-(((2R,7aS)-2-fluorotetrahydro-1H-pyrrolizin-7a(5H)-yl)methoxy)-2,3,11,11a-tetrahydro-1H-10-oxa-3a,4,6,9-tetraazanaphtho[1,8-ef]azulen-8-yl)-5-ethynyl-6-fluoronaphthalen-2-ol] was tested. Which IC50 did it give?
A: 112 nM

Q: Which IC50 does the source give for `C#Cc1c(F)ccc2cc(O)cc(-c3nc4c5c(nc(OC[C@@]67CCCN6C[C@H](F)C7)nc5c3F)N3CCCC[C@H]3CO4)c12` [Example 16, 5-ethynyl-6-fluoro-4-((S)-1-fluoro-11-(((2R,7aS)-2-fluorotetrahydro-1H-pyrrolizin-7a(5H)-yl)methoxy)-5,5a,6,7,8,9-hexahydro-4-oxa-3,9a,10,12-tetraazabenzo[4,5]cyclohepta[1,2,3-d]naphthalen-2-yl)naphthalen-2-ol] here?
A: 5.9 nM

Q: For `Nc1cc(Cl)c(C(F)(F)F)c(-c2nc3c4c(nc(OC[C@@]56CCCN5C[C@H](F)C6)nc4c2F)N2CC[C@H]2CCO3)c1` [Example 22, 3-chloro-5-((S)-6-fluoro-4-(((2R,7aS)-2-fluorotetrahydro-1H-pyrrolizin-7a(5H)-yl)methoxy)-1,10,11,11a-tetrahydro-2H-9-oxa-2a,3,5,8-tetraazacyclobuta[4,5]cycloocta[1,2,3-de]naphthalen-7-yl)-4-(trifluoromethyl)aniline], which IC50 is on record?
A: 466 nM

Q: With `Nc1cc(Cl)c(C(F)(F)F)c(-c2nc3c4c(nc(OC[C@@]56CCCN5C[C@H](F)C6)nc4c2F)N2CC[C@@H]2CCO3)c1` [Example 23, 3-chloro-5-((R)-6-fluoro-4-(((2R,7aS)-2-fluorotetrahydro-1H-pyrrolizin-7a(5H)-yl)methoxy)-1,10,11,11a-tetrahydro-2H-9-oxa-2a,3,5,8-tetraazacyclobuta[4,5]cycloocta[1,2,3-de]naphthalen-7-yl)-4-(trifluoromethyl)aniline] as the compound, how does the IC50 read?
A: 73 nM

Q: With `N#Cc1c(N)sc2c(F)ccc(-c3c(Cl)c4c5c(nc(OC[C@@]67CCCN6C[C@H](F)C7)nc5c3F)N3CCC(C#N)C[C@H]3CO4)c12` (stereo partly drawn) [Example 30, (8aS)-5-(2-amino-3-cyano-7-fluorobenzo[b]thiophen-4-yl)-6-chloro-4-fluoro-2-(((2R,7aS)-2-fluorotetrahydro-1H-pyrrolizin-7a(5H)-yl)methoxy)-8,8a,9,10,11,12-hexahydropyrido[2′,1′:3,4][1,4]oxazepino[5,6,7-de]quinazoline-10-carbonitrile] as the compound, how does the IC50 read?
A: 51 nM

Q: `Nc1cc(Cl)c(C(F)(F)F)c(-c2nc3c4c(nc(OC[C@@]56CCCN5C[C@H](F)C6)nc4c2F)N2CCC(F)C2CO3)c1` (stereo partly drawn) [Example 17, 3-chloro-5-(1,7-difluoro-5-(((2R,7aS)-2-fluorotetrahydro-1H-pyrrolizin-7a(5H)-yl)methoxy)-2,3,11,11a-tetrahydro-1H-10-oxa-3a,4,6,9-tetraazanaphtho[1,8-ef]azulen-8-yl)-4-(trifluoromethyl)aniline] was tested. Which IC50 did it give?
A: 509 nM

Q: Which IC50 does the source give for `C[C@@H]1C[C@H]2COc3c(Cl)c(-c4ccc(F)c5sc(N)c(C#N)c45)c(F)c4nc(OC[C@@]56CCCN5C[C@H](F)C6)nc(c34)N2C1` [Example 28, 2-amino-4-((2R,12aS)-10-chloro-8-fluoro-6-(((2R,7aS)-2-fluorotetrahydro-1H-pyrrolizin-7a(5H)-yl)methoxy)-2-methyl-2,3,12,12a-tetrahydro-1H-pyrrolo[2′,1′:3,4][1,4]oxazepino[5,6,7-de]quinazolin-9-yl)-7-fluorobenzo[b]thiophene-3-carbonitrile] here?
A: 74 nM

Same assay, conditions: SW620 cells, 2 hrs compound treatment

Q: Which IC50 does the source give for `C#Cc1c(F)ccc2cc(O)cc(-c3nc4c5c(nc(OCC67CCCN6CC(F)C7)nc5c3F)N3CCC3CO4)c12` (single isomer, unassigned) [Example 18] here?
A: 326 nM

Q: With “3-chloro-5-(1-fluoro-12-(((2R,7aS)-2-fluorotetrahydro-1H-pyrrolizin-7a(5H)-yl)methoxy)-6,6a,7,8,9,10-hexahydro-5H-4-oxa-3,10a,11,13-tetraazabenzo[4,5]cycloocta[1,2,3-de]naphthalen-2-yl)-4-(trifluoromethyl)aniline [Example 8]” as the compound, how does the IC50 read?
A: 290 nM

Test system: pERK1/2(THR202/TYR204) level in AsPC-1 cell line (KRAS G12D)
Assay: KRAS G12D pERK assay (HTRF) in AsPC-1 cell line
Format: cell-based
Conditions: Homo sapiens, ASPC1; AsPC-1 cells, 2 h compound treatment
Method: as §1, with “AsPC-1” for “SW620”, “RPMI-1640” for “RPMI 1640”, “30000” for “40000”, “h” for “hrs”, “IC50 determination was performed by fitting the curve of percent inhibition versus the log of the inhibitor concentration using Dotmatics.” left out

Q: `C#Cc1c(F)ccc2cc(O)cc(-c3nc4c5c(nc(OC[C@@]67CCCN6C[C@H](F)C7)nc5c3F)N3CCCC[C@H]3CO4)c12` [Example 16, 5-ethynyl-6-fluoro-4-((S)-1-fluoro-11-(((2R,7aS)-2-fluorotetrahydro-1H-pyrrolizin-7a(5H)-yl)methoxy)-5,5a,6,7,8,9-hexahydro-4-oxa-3,9a,10,12-tetraazabenzo[4,5]cyclohepta[1,2,3-d]naphthalen-2-yl)naphthalen-2-ol] was tested. Which IC50 did it give?
A: 6.3 nM
